How the values were obtained:
[1] = target: TIPARP (PARP7) (Homo sapiens (Human), UniProt Q7Z3E1); assay: Enzymatic assay for inhibition of PARP7: displacement of biotinylated Probe A (TR-FRET); format: binding; settings: TR-FRET displacement of Probe A from TIPARP
Experimental: 20 nL of a dose response curve of each test compound was spotted in black 384-well polystyrene proxiplates (Perkin Elmer) using a Mosquito (TTP Labtech). […] Reactions were incubated at 25° C. for an additional 30 min, then read on an Envision plate reader equipped with a LANCE/DELFIA top mirror (Perkin Elmer) using excitation of 320 nm and emission of 615 nm and […] with a 90 μs delay. The ratio of the 665/615 nm emission were calculated for each well to determine the amount of complex of TIPARP and Probe A in each well. […] The Hill Coefficient is normally allowed to float but may also be fixed at 1 in a 3-parameter fit. Y is the % inhibition and X is the compound concentration.

[2] = tested on: NCI-H1373 lung cancer cells; assay: Inhibition of cancer cell growth in NCI-H1373 cells (FIG. 2); format: cell-based, human
[3] = tested on: 4T1-luc2-1A4 cells; assay: Inhibition of tumor growth, 4T1 murine syngeneic model, subcutaneous dosing; format: in vivo; settings: 4T1 orthotopic syngeneic, BALB/c mice; Compound 98 500 mg/kg S.C. QD, Compound 93A 100 mg/kg S.C. BID, 21 days
Description: (§1) Example G: Inhibition of Tumor Growth by Treatment with PARP7 Inhibitors
For the 4T1 study female BALB/c mice were inoculated orthotopically in the mammary fat pad with 4T1-luc2-1A4 cells for tumor development. Eight days after tumor inoculation, 45 mice with tumor size ranging from 63-88 mm^3 (average tumor size 67 mm^3) were selected and assigned into 3 groups using stratified randomization with 15 mice in each group based upon their tumor volumes. The treatments were started from the next day post randomization (defined randomization day as D0) and were treated with vehicle (0.5% methylcellulose+0.2% Tween 80), Compound 98 (500 mg/kg S.C. QD*21 days), Compound 93A (100 mg/kg S.C. BID*21 days) respectively. The tumor sizes were measured three times per week during the treatment. The entire study was terminated on D20.
(§2) Mean tumor volume and SEM for both studies are plotted. Statistical significance, calculated using two-tailed unpaired t-tests in which each treatment group was compared to vehicle control, is indicated by an asterisk. Statistics were performed on groups with less than 20% animal loss (D21 for CT26, D17 for 4T1).

[4] = tested on: CT26 cells; assay: Inhibition of tumor growth, CT26 murine syngeneic model, subcutaneous dosing; format: in vivo; settings: BALB/c mice, Compound 98 500 mg/kg S.C. QD, Compound 93A 100 mg/kg S.C. BID, 21 days
Description: as §1
For the CT26 study BALB/c mice were inoculated subcutaneously at the right flank with CT26 cells for tumor development. Four days after tumor inoculation, 36 mice with tumor size ranging from 40-55 mm^3 (average tumor size 47 mm^3) were selected and assigned into 3 groups using stratified randomization with 12 mice in each group based upon their tumor volumes. The treatments were started from the next day post randomization (defined randomization day as day 0) and were treated with vehicle (0.5% methylcellulose+0.2% Tween 80), Compound 98 (500 mg/kg S.C. QD*21 days), Compound 93A (100 mg/kg S.C. BID*21 days) respectively. The tumor sizes were measured three times per week during the treatment. The entire study was terminated on day 21.
as §2

[5] = tested on: RAW264.7 mouse macrophages; assay: Induction of interferon-beta levels in RAW264.7 macrophages in the presence of STING agonist DMXAA (FIG. 3); format: cell-based
[6] = tested on: CT26 mouse colon cancer cells; assay: Induction of interferon-beta levels in CT26 cells in the presence of STING agonist DMXAA (FIG. 3); format: cell-based
[7] = target: PARP7 (Homo sapiens (Human), UniProt Q7Z3E1); assay: PARP7 inhibition potency (Table A-1); format: binding; settings: comparison of separated isomers; see Table A-1
PARP7, sequence (Q7Z3E1 whole entry): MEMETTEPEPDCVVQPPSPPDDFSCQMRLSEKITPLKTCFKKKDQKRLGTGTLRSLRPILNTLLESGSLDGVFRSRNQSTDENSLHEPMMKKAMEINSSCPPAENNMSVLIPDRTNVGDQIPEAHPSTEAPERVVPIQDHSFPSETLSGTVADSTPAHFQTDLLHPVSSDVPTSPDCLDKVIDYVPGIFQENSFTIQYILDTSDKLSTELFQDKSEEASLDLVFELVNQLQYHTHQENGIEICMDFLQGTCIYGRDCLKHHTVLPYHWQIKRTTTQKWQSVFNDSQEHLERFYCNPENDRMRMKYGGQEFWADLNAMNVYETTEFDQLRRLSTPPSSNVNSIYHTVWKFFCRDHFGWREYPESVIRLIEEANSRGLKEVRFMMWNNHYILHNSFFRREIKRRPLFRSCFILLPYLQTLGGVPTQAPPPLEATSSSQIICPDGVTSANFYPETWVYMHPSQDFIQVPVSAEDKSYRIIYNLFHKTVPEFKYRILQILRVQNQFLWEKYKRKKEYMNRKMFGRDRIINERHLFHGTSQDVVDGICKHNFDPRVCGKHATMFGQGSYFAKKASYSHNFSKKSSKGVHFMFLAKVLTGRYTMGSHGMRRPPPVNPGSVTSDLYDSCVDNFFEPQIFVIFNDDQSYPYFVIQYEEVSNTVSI

TIPARP (PARP7), sequence (Q7Z3E1 whole entry): as above

SMILES	IC50 [1] [nM]	further results
N#Cc1ccc(N2CCN(C(=O)c3ccnc(OC[C@H]4c5ccccc5CN4c4cn[nH]c(=O)c4C(F)(F)F)c3)CC2)nc1 [Example 36A, 6-[4-[(2-[[(1R)-2-[6-oxo-5-(trifluoromethyl)-1,6-dihydropyridazin-4-yl]-2,3-dihydro-1H-isoindol-1-yl]methoxy]pyridin-4-yl)carbonyl]piperazin-1-yl]pyridine-3-carbonitrile]	≥ 1000	–
N#Cc1ccc(N2CCN(C(=O)c3ccnc(OC[C@@H]4c5ccccc5CN4c4cn[nH]c(=O)c4C(F)(F)F)n3)CC2)nc1 [Example 38A, 6-[4-[(2-[[(1S)-2-[6-Oxo-5-(trifluoromethyl)-1,6-dihydropyridazin-4-yl]-2,3-dihydro-1H-isoindol-1-yl]methoxy]pyrimidin-4-yl)carbonyl]piperazin-1-yl]pyridine-3-carbonitrile]	< 100	–
N#Cc1ccc(N2CCN(C(=O)c3cccc(OCCOc4cccc5c4CN(c4cn[nH]c(=O)c4C(F)(F)F)C5)c3)CC2)nc1 [Example 39, 6-[4-([3-[2-([2-[6-Oxo-5-(trifluoromethyl)-1,6-dihydropyridazin-4-yl]-2,3-dihydro-1H-isoindol-4-yl]oxy)ethoxy]phenyl]carbonyl)piperazin-1-yl]pyridine-3-carbonitrile]	–	growth of NCI-H1373 lung cancer cells [2]: dose-dependent decrease in growth
N#Cc1ccc(N2CCN(C(=O)c3cncc(OC[C@H]4c5ccccc5CN4c4cn[nH]c(=O)c4C(F)(F)F)n3)CC2)nc1 [Example 72B, 6-[4-[(6-[[(1R)-2-[6-oxo-5-(trifluoromethyl)-1,6-dihydropyridazin-4-yl]-2,3-dihydro-1H-isoindol-1-yl]methoxy]pyrazin-2-yl)carbonyl]piperazin-1-yl]pyridine-3-carbonitrile]	< 100	–
N#Cc1ccc(N2CCN(C(=O)CCOC[C@@H]3c4ccccc4CN3c3cn[nH]c(=O)c3C(F)(F)F)CC2)nc1 [Example 93A, 6-[4-(3-[[(1S)-2-[6-oxo-5-(trifluoromethyl)-1,6-dihydropyridazin-4-yl]-2,3-dihydro-1H-isoindol-1-yl]methoxy]propanoyl)piperazin-1-yl]pyridine-3-carbonitrile]	–	tumor growth [3]: significantly reduce tumor growth; growth of NCI-H1373 lung cancer cells [2]: dose-dependent decrease in growth; tumor growth [4]: significantly reduce tumor growth
N#Cc1ccc(N2CCN(C(=O)CCOC[C@@H]3CCCN3c3cn[nH]c(=O)c3C(F)(F)F)CC2)nc1 [Example 98, 6-[4-(3-[[(2S)-1-[6-Oxo-5-(trifluoromethyl)-1,6-dihydropyridazin-4-yl]pyrrolidin-2-yl]methoxy]propanoyl)piperazin-1-yl]pyridine-3-carbonitrile]	–	interferon-beta (IFN-β) levels [5]: induction of interferon-beta (IFN-β) levels; tumor growth [3]: significantly reduce tumor growth; growth of NCI-H1373 lung cancer cells [2]: dose-dependent decrease in growth; tumor growth [4]: significantly reduce tumor growth; interferon-beta (IFN-β) levels [6]: induction of interferon-beta (IFN-β) levels
N#Cc1ccc(N2CCC3C2CCN3C(=O)CCOC[C@@H]2CCCN2c2cn[nH]c(=O)c2C(F)(F)F)nc1 (stereo partly drawn) [Example 110, 6-[4-(3-[[(2S)-1-[6-oxo-5-(trifluoromethyl)-1,6-dihydropyridazin-4-yl]pyrrolidin-2-yl]methoxy]propanoyl)-octahydropyrrolo[3,2-b]pyrrol-1-yl]pyridine-3-carbonitrile]	< 100	–
N#Cc1ccc(N2CCN(C(=O)C[C@H]3CC[C@@H]([C@@H]4CCCN4c4cn[nH]c(=O)c4C(F)(F)F)O3)CC2)nc1 [Example 141B, 6-(4-[2-[(2R,5S)-5-[(2S)-1-[6-oxo-5-(trifluoromethyl)-1,6-dihydropyridazin-4-yl]pyrrolidin-2-yl]oxolan-2-yl]acetyl]piperazin-1-yl)pyridine-3-carbonitrile]	–	relative potency of the enantiomers [7]: more potent enantiomer
O=C(CCOCCOc1cn[nH]c(=O)c1Cl)N1CCN(c2ccc(Cl)cn2)CC1 [Example 523, 4-Chloro-5-(2-[3-[4-(5-chloropyridin-2-yl)piperazin-1-yl]-3-oxopropoxy]ethoxy)-2,3-dihydropyridazin-3-one]	< 100	–
N#Cc1ccc(N2CCN(C(=O)CCO[C@H]3Cc4ccccc4[C@@H]3Nc3cn[nH]c(=O)c3C(F)(F)F)CC2)nc1 [Example 537A]	≥ 1000	–
COC[C@@H](COc1cn[nH]c(=O)c1C(F)(F)F)OCCC(=O)N1CCN(c2ncc(Cl)cn2)CC1 [Example 560A, 5-[(2S)-2-[3-[4-(5-chloropyrimidin-2-yl)piperazin-1-yl]-3-oxopropoxy]-3-methoxypropoxy]-4-(trifluoromethyl)-2,3-dihydropyridazin-3-one]	< 100	–

More lines, main results first:

IC50 [1] [nM]	SMILES	further results
100 to 1000	N#Cc1ccc(N2CCN(C(=O)c3ccc(OC[C@H]4c5ccccc5CN4c4cn[nH]c(=O)c4C(F)(F)F)cc3)CC2)nc1 [Example 35B, 6-[4-[(4-[[(1R)-2-[6-oxo-5-(trifluoromethyl)-1,6-dihydropyridazin-4-yl]-2,3-dihydro-1H-isoindol-1-yl]methoxy]phenyl)carbonyl]piperazin-1-yl]pyridine-3-carbonitrile]	–
100 to 1000	O=C(COC[C@@H]1CCCN1c1cn[nH]c(=O)c1C(F)(F)F)N[C@H]1CC[C@H](Nc2ccccn2)CC1 [Example 80A, 2-[[(2S)-1-[6-oxo-5-(trifluoromethyl)-1,6-dihydropyridazin-4-yl]pyrrolidin-2-yl]methoxy]-N-[(1r,4r)-4-[(pyridin-2-yl)amino]cyclohexyl]acetamide]	–
< 100	N#Cc1ccc(N2CCN(C(=O)CNCC[C@H]3c4ccccc4CN3c3cn[nH]c(=O)c3C(F)(F)F)CC2)nc1 [Example 144A, 6-[4-[2-([2-[(1S)-2-[6-oxo-5-(trifluoromethyl)-1,6-dihydropyridazin-4-yl]-2,3-dihydro-1H-isoindol-1-yl]ethyl]amino)acetyl]piperazin-1-yl]pyridine-3-carbonitrile]	–
< 100	O=C(CCOCCNc1cn[nH]c(=O)c1C(F)(F)F)N1CCN(c2ccc(Cl)cn2)CC1 [Example 506, 5-[(2-[3-[4-(5-Chloropyridin-2-yl)piperazin-1-yl]-3-oxopropoxy]ethyl)amino]-4-(trifluoromethyl)-2,3-dihydropyridazin-3-one]	–
< 100	CC(C)(COCCC(=O)N1CCN(c2ccc(C#N)cn2)CC1)Nc1cn[nH]c(=O)c1C(F)(F)F [Example 519, 6-[4-[3-(2-Methyl-2-[[6-oxo-5-(trifluoromethyl)-1,6-dihydropyridazin-4-yl]amino]propoxy)propanoyl]piperazin-1-yl]pyridine-3-carbonitrile]	–
100 to 1000	COC[C@H](COc1cn[nH]c(=O)c1C(F)(F)F)OCCC(=O)N1CCN(c2ncc(Cl)cn2)CC1 [Example 560B, 5-[(2R)-2-[3-[4-(5-chloropyrimidin-2-yl)piperazin-1-yl]-3-oxopropoxy]-3-methoxypropoxy]-4-(trifluoromethyl)-2,3-dihydropyridazin-3-one]	–
